Assay results as given in patent publication US6319952A, “Compositions and methods for reversibly increasing permeability of biomembranes” (D-Pharm Ltd., priority 1997, dated 2001).

Assays:
[1] = test system: blood-brain barrier (BBB); experiment: Effect of branched chain fatty acids on BBB permeability by qualitative Evan's Blue (EB) evaluation in rats; format: in vivo, rat (male Sprague-Dawley); settings: intracarotid infusion
Method: Evaluation of Effect of Branched Fatty Acids on Blood-brain Barrier Permeability
The experiments were carried out on male Sprague-Dawley rats weighing 250-320 gr. They were anesthetized with Rampun-Imalgen. The right common carotid artery was exposed.
The test compounds were dissolved in 0.1M phosphate buffered physiological saline (pH=7.4) at the following test concentrations: 1.6; 8; 20; 40; 200 and 1000 μg/ml.
The test compound was infused into the right common carotid artery at a rate of 6 ml/min. for 30 s. The control rats were infused with buffer. Evan's Blue (EB) solution at a concentration of […] (2 g Evan's Blue, 0.9 g NaCl in 100 ml water) was injected intravenously 50 minutes prior to the termination of the experiment.
In the case of 45 min experiment, five minutes prior to the infusion of the tested material, 4 ml/kg body wt dose of Evans Blue solution was injected intravenously.
At the end of the experimental time period the animals were perfused with 100 ml of saline solution through the heart and decapitated. The degree of BBB opening, in terms of extravasation of Evan's Blue albumin, was graded on the basis of visual assessment of the degree of staining of the brain ato the method of Rapoport et al. (Rapoport et al., 1980, Amer. J. Physiol. 258, 421-431), and the results are presented in Tables 1 and 2.
The results presented are qualitative with four degrees of Evan's Blue extravasation according to Rapoport et al. Minus signs represents no staining and three plus signs represent maximal staining.

mice = experiment: Acute intravenous toxicity test in mice; format: in vivo; settings: i.v.; for dose causing mortality: mice, three days
Method: An acute intravenous toxicity test was performed to study the toxicity of the branched fatty acids in mice. The study included mortality and behavioral observations during three days. The rate of mortality is represented in the Table 5. M 3/14 caused mortality at a dose of 175 mg/kg; M3/12 at a dose of 75 mg/kg and M 3/10 at a dose of 100 mg/kg. Death was observed ten minutes after i.v. injection. In sub-lethal doses no significant behavior changes were observed.

blood brain barrier [2] = settings: cited from earlier work
blood brain barrier [3] = settings: Sztriha and Betz; cited from earlier work
membrane = settings: Perlman and Goldstein; cited from earlier work

SMILES: CCCCCCCCCCC(CCC)C(=O)O (stereo not drawn) [M 3/10, 2-propyldodecanoic acid]
- Visual EB ([1]; 625 μM, 45 min): ++
- Mortality (mice; 50 mg/kg, 10 mg/ml): 0/3
- Mortality (mice; 100 mg/kg, 10 mg/ml): 3/3
- dose causing mortality (mice): 100 mg/kg

SMILES: CCCCCCCCCCCCC(CCC)C(=O)O (stereo not drawn) [M 3/12, 2-propyltetradecanoic acid]
- Visual EB ([1]; 125 μM, 180 min): ++
- Mortality (mice; 50 mg/kg, 2.5 mg/ml): 0/3
- Mortality (mice; 75 mg/kg, 2.5 mg/ml): 3/3
- dose causing mortality (mice): 75 mg/kg

SMILES: CCCCCCCCCCC(CCCCCCCCCC)C(=O)O [M 10/10, 2-decanyldodecanoic acid]
- Visual EB ([1]; 625 μM, 45 min): ++

SMILES: OC[C@@H](O)[C@@H](O)[C@H](O)[C@H](O)CO [Mannitol]
- drug entry after barrier opening (blood brain barrier [2]; osmotic modification, chemotherapy after barrier opening): enhanced drug entry to both brain-tumor and brain
- complications of osmotic BBB modification (blood brain barrier [2]; osmotic modification): clinical manifestation of stroke, seizures, immunological reaction and ocular toxicity
- duration of BBB opening (blood brain barrier [2]; osmotic treatment, Greig): very short period

SMILES: CCCCCCCC/C=C\CCCCCCCC(=O)O [oleic acid, reference compound]
- Visual EB ([1]; 125 μM, 180 min): -
- opening of the BBB (blood brain barrier [3]): reversibly open the BBB

SMILES: CCCC(CCC)C(=O)O [valproic acid]
- membrane disordering (membrane): membrane disordering potency
